According to PubChem BioAssay AID330 (DTP/NCI, 2004):
Where “and” joins values, the source holds several entries; their conditions need not be identical. Equal entries are not always repeated. Toxic doses and inconclusive results are not listed. Rule for the calls: active = survival T/C of 150% or more; inactive = T/C below 125% in these data.

Tested on: P388 leukemia ip, CD2F1 mice, survival T/C
Experiment: NCI In Vivo Anticancer Drug Screen. Data for tumor model P388 Leukemia (intraperitoneal) in CD2F1 (CDF1) mice
Details: endpoint: median survival time, higher = longer survival
How it was run: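 Mice carrying the transplanted tumor received test compound or vehicle. Survival was recorded in each group, and the value is the treated-group measurement divided by that of the vehicle-treated control group.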

[1] = dose: 50.0 mg/kg/injection, schedule: Q01DX009 (ip), vehicle: saline
[2] = dose: 100.0 mg/kg/injection, schedule: Q01DX009 (ip), vehicle: saline
[3] = dose: 200.0 mg/kg/injection, schedule: Q01DX009 (ip), vehicle: saline
[4] = dose: 25.0 mg/kg/injection, schedule: Q01DX009 (ip), vehicle: saline
[5] = dose: 12.5 mg/kg/injection, schedule: Q01DX009 (ip), vehicle: saline
[6] = dose: 50.0 mg/kg/injection, schedule: Q01DX005 (ip), vehicle: Klucel (hydroxypropylcellulose) (HPC)
[7] = dose: 100.0 mg/kg/injection, schedule: Q01DX005 (ip), vehicle: Klucel (hydroxypropylcellulose) (HPC)
[8] = dose: 200.0 mg/kg/injection, schedule: Q01DX005 (ip), vehicle: Klucel (hydroxypropylcellulose) (HPC)
[9] = dose: 60.0 mg/kg/injection, schedule: Q01DX005 (ip), vehicle: Klucel (hydroxypropylcellulose) (HPC)
[10] = dose: 120.0 mg/kg/injection, schedule: Q01DX005 (ip), vehicle: Klucel (hydroxypropylcellulose) (HPC)
[11] = dose: 240.0 mg/kg/injection, schedule: Q01DX005 (ip), vehicle: Klucel (hydroxypropylcellulose) (HPC)
[12] = dose: 50.0 mg/kg/injection, schedule: Q01DX009 (ip), vehicle: Klucel (hydroxypropylcellulose) (HPC)
[13] = dose: 1.56 mg/kg/injection, schedule: Q01DX009 (ip), vehicle: saline
[14] = dose: 6.25 mg/kg/injection, schedule: Q01DX009 (ip), vehicle: saline
[15] = dose: 50.0 mg/kg/injection, schedule: Q01DX005 (ip), vehicle: saline with Tween-80
[16] = dose: 100.0 mg/kg/injection, schedule: Q01DX005 (ip), vehicle: saline with Tween-80
[17] = dose: 200.0 mg/kg/injection, schedule: Q01DX005 (ip), vehicle: saline with Tween-80

Measured: T/C

CC(O)c1cc(C(C)O)cc(C(C)O)c1 (stereo not given)
inactive: [1] 95 % of control | [2] 101 % of control | [3] 99 % of control

NCC(=O)c1ccc(O)c(O)c1
inactive: [4] 100 % of control | dose: 25.0 mg/kg/injection, schedule: Q04DX003 (ip), vehicle: saline with Tween-80 108 % of control | [1] 113 % of control | dose: 50.0 mg/kg/injection, schedule: Q04DX003 (ip), vehicle: saline with Tween-80 108 % of control | dose: 100.0 mg/kg/injection, schedule: Q04DX003 (ip), vehicle: saline with Tween-80 104 % of control and 121 % of control

COC(=O)c1nc(=S)[nH]c(C(=O)OC)c1C(=O)c1ccc(N2CCN(c3ccc(C(=O)c4c(C(=O)OC)nc(=S)[nH]c4C(=O)OC)cc3)CC2)cc1
inactive: dose: 60.0 mg/kg/injection, schedule: Q01DX005 (ip), vehicle: suspension in saline 99 % of control | dose: 120.0 mg/kg/injection, schedule: Q01DX005 (ip), vehicle: suspension in saline 97 % of control | dose: 240.0 mg/kg/injection, schedule: Q01DX005 (ip), vehicle: suspension in saline 100 % of control

O=C1CSC(=O)N1c1ccc(Cl)c(Cl)c1
inactive: [5] 94 % of control | [4] 89 % of control | dose: 50.0 mg/kg/injection, schedule: Q01DX009 (ip), vehicle: saline with Tween-80 95 % of control | [1] 88 % of control | dose: 100.0 mg/kg/injection, schedule: Q01DX009 (ip), vehicle: saline with Tween-80 87 % of control

C#CCCCC#C
inactive: [6] 98 % of control | [7] 98 % of control | [8] 104 % of control

CCC(=O)CC1(C(=O)OC)NC(=S)NC(=O)C1C#N (stereo not given)
inactive: [9] 102 % of control | [10] 103 % of control | [11] 100 % of control

O=C(N/N=C\c1cc([N+](=O)[O-])ccc1O)C(=O)N/N=C\c1cc([N+](=O)[O-])ccc1O
inactive: [12] 106 % of control | dose: 100.0 mg/kg/injection, schedule: Q01DX009 (ip), vehicle: Klucel (hydroxypropylcellulose) (HPC) 95 % of control | dose: 200.0 mg/kg/injection, schedule: Q01DX009 (ip), vehicle: Klucel (hydroxypropylcellulose) (HPC) 99 % of control

CCN(C)c1nc(N(C)C)nc(N(C)C)n1
inactive: dose: 50.0 mg/kg/injection, schedule: Q04DX002 (ip), vehicle: saline with Tween-80 100 % of control | dose: 50.0 mg/kg/injection, schedule: Q04DX002 (ip), vehicle: saline 109 % of control | dose: 100.0 mg/kg/injection, schedule: Q04DX002 (ip), vehicle: saline with Tween-80 107 % of control | dose: 100.0 mg/kg/injection, schedule: Q04DX002 (ip), vehicle: saline 110 % of control | dose: 200.0 mg/kg/injection, schedule: Q04DX002 (ip), vehicle: saline with Tween-80 100 % of control | dose: 200.0 mg/kg/injection, schedule: Q04DX002 (ip), vehicle: saline 109 % of control

Clc1ccc(N2C(c3ccccc3)=N[C@@H](N3CCOCC3)[C@@H]2N2CCOCC2)cc1
inactive: [6] 100 % of control | [7] 100 % of control | [8] 105 % of control

NC(=O)N1C(=O)C=CC1=O
inactive: [6] 92 % of control | [7] 104 % of control

CN(C)Cc1cccc(CN(C)C)[c]1[Sn]([Br])([c]1ccccc1)[c]1ccccc1
inactive: [13] 104 % of control | dose: 3.12 mg/kg/injection, schedule: Q01DX009 (ip), vehicle: saline 106 % of control | [5] 120 % of control

CCOC(=O)CC/C(=C/c1cccc(OC)c1)[N+](=O)[O-]
inactive: dose: 50.0 mg/kg/injection, schedule: Q01DX001 (ip), vehicle: Klucel (hydroxypropylcellulose) (HPC) 105 % of control | dose: 100.0 mg/kg/injection, schedule: Q01DX001 (ip), vehicle: Klucel (hydroxypropylcellulose) (HPC) 107 % of control | dose: 200.0 mg/kg/injection, schedule: Q01DX001 (ip), vehicle: Klucel (hydroxypropylcellulose) (HPC) 107 % of control

C=C/[Se](=C(/C#N)C(=O)c1ccccc1)c1ccccc1 (stereo not given)
inactive: [14] 99 % of control | [5] 99 % of control | [4] 89 % of control

O=C1c2ccccc2C(=O)c2cc(NC(=O)C(F)(F)F)ccc21
inactive: dose: 50.0 mg/kg/injection, schedule: Q01DX005 (ip), vehicle: Klucel + Tween-80 99 % of control | dose: 100.0 mg/kg/injection, schedule: Q01DX005 (ip), vehicle: Klucel + Tween-80 95 % of control | dose: 200.0 mg/kg/injection, schedule: Q01DX005 (ip), vehicle: Klucel + Tween-80 96 % of control

COc1ccc(C2c3cc4c(cc3OC(C)(O)C2C)OCO4)c(OC)c1 (stereo not given)
inactive: [9] 98 % of control | [10] 97 % of control | [11] 100 % of control

CCCCC[CH2][Ge]([CH2]CCC)([CH2]CCC)[CH]1CCCCC1
inactive: [1] 106 % of control | [2] 103 % of control | [3] 95 % of control

CC(=O)C1CO1 (stereo not given)
inactive: dose: 12.5 mg/kg/injection, schedule: Q01DX005 (ip), vehicle: saline 105 % of control | dose: 25.0 mg/kg/injection, schedule: Q01DX005 (ip), vehicle: saline 107 % of control | dose: 50.0 mg/kg/injection, schedule: Q01DX005 (ip), vehicle: saline 110 % of control and 116 % of control

Nc1nc(N)c2cc(CNc3ccc(C(=O)NC(CC(=O)O)C(=O)O)cc3)ccc2n1 (stereo not given)
active: dose: 0.5 mg/kg/injection, schedule: Q01DX009 (ip), vehicle: saline 181 % of control | dose: 1.0 mg/kg/injection, schedule: Q01DX009 (ip), vehicle: saline 200 % of control | dose: 1.0 mg/kg/injection, schedule: Q04DX003 (ip), vehicle: saline with Tween-80 150 % of control | [13] 222 % of control | dose: 3.13 mg/kg/injection, schedule: Q01DX009 (ip), vehicle: saline 259 % of control
inactive: dose: 0.13 mg/kg/injection, schedule: Q04DX003 (ip), vehicle: saline with Tween-80 109 % of control | dose: 0.25 mg/kg/injection, schedule: Q04DX003 (ip), vehicle: saline with Tween-80 113 % of control | [14] 90 % of control

Cc1nc(Nc2c(C)cccc2C)c2c(C)c(Cc3ccccc3)[nH]c2n1
inactive: [6] 89 % of control | [7] 89 % of control | [8] 104 % of control

c1cc[c]([Bi]([c]2ccccc2)[c]2ccccc2)cc1
inactive: dose: 12.5 mg/kg/injection, schedule: Q01DX009 (ip), vehicle: Klucel (hydroxypropylcellulose) (HPC) 103 % of control | dose: 25.0 mg/kg/injection, schedule: Q01DX009 (ip), vehicle: Klucel (hydroxypropylcellulose) (HPC) 106 % of control | [12] 101 % of control and 112 % of control

CN1CCOP(=O)(Oc2ccccc2)N1 (stereo not given)
inactive: dose: 60.0 mg/kg/injection, schedule: Q01DX005 (ip), vehicle: saline with Tween-80 103 % of control | dose: 120.0 mg/kg/injection, schedule: Q01DX005 (ip), vehicle: saline with Tween-80 99 % of control | dose: 240.0 mg/kg/injection, schedule: Q01DX005 (ip), vehicle: saline with Tween-80 100 % of control

Cc1cc(=O)oc2c(CNC(C(=O)O)C(C)C)c(O)ccc12 (stereo not given)
inactive: [9] 91 % of control | [10] 91 % of control

CC(C)(C)c1cc(N)cc([N+](=O)[O-])c1
inactive: dose: 100.0 mg/kg/injection, schedule: Q04DX002 (ip), vehicle: other 109 % of control | dose: 200.0 mg/kg/injection, schedule: Q04DX002 (ip), vehicle: other 102 % of control

CC(C)C(=O)CP(=O)(O)O
inactive: [1] 106 % of control | [2] 101 % of control | [3] 108 % of control

O=C1C2CCc3cnn(-c4ccccc4)c3C2C(=O)N1c1ccccc1 (stereo not given)
inactive: [15] 101 % of control | [16] 99 % of control | [17] 94 % of control

O=C(Oc1c(Br)c(N(C(=O)c2ccccc2)c2ccccc2)c(OC(=O)c2ccccc2)c(Br)c1N(C(=O)c1ccccc1)c1ccccc1)c1ccccc1
inactive: [15] 91 % of control | [16] 95 % of control | [17] 89 % of control

C=C(CN1CCOCC1)C(=O)c1ccccc1
inactive: dose: 1.89 mg/kg/injection, schedule: Q01DX005 (ip), vehicle: saline 105 % of control | dose: 3.75 mg/kg/injection, schedule: Q01DX005 (ip), vehicle: saline 112 % of control | dose: 7.5 mg/kg/injection, schedule: Q01DX005 (ip), vehicle: saline 100 % of control and 105 % of control
